Holding throughout (assay): NCI-60 cell line screen, 48 h
Assay [1] concerns MOLT-4 leukemia.
The test system of assay [2] is UACC-62 melanoma.
The subject of assay [3] is HT29 colon.
Assay [4] concerns LOX IMVI melanoma.
The subject of assay [5] is BT-549 breast.
The subject of assay [6] is SW-620 colon.
Assay [7] concerns OVCAR-3 ovarian.
Assay [8] has as its system SF-295 CNS.
Assay [9] relates to SNB-19 CNS.
The subject of assay [10] is CCRF-CEM leukemia.
The subject of assay [11] is SK-MEL-2 melanoma.
The test system of assay [12] is MDA-MB-231 breast.

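48-hour exposure; five concentrations; linearly interpolated endpoints. TGI: total growth inhibition.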

Regarding `CC(C)OP(=O)(OC(C)C)C(C(F)(F)F)C(F)(F)F`, the TGI in [1], in assay [2], in assay [3], in assay [4], in assay [5] and in assay [6] was greater than 100 µM each time. The TGI in assay [7], in [8], in assay [9], in [10] and in [11] was greater than 100 µM throughout.

`CSC1=N/C(=C\c2cccs2)C(=O)N1CN1CCOCC1`: the TGI in assay [1], in assay [12], in assay [2], in assay [3], in assay [4] and in [6] was greater than 100 µM in each case. The TGI in assay [7], in assay [8], in [9], in [10] and in assay [11] was greater than 100 µM throughout.

Regarding `CCOC(=O)/C(C(=S)NC)=C(/N)N1CCCC1`, the TGI in [1], in assay [12], in assay [2], in assay [3], in assay [4] and in assay [6] was greater than 100 µM throughout. Further, the TGI in assay [7], in assay [8], in assay [9], in assay [10] and in [11] was greater than 100 µM in each case.

For `C=CCn1c2ccccc2c2c(C)c3cnccc3c(C)c21`, the TGI was 9.82 µM in [1]; 41.2 µM in [2]; 124 µM in assay [3]; 60 µM in assay [4]; 59.1 µM in assay [6]; 48.6 µM in [7]. Moreover, the TGI in assay [8] is 52.5 µM; in assay [9], greater than 78.2 µM; in assay [10], 24.5 µM; in assay [11], greater than 71 µM.

For the compound `CC(/C=C/c1ncccc1OCCCCCC(=O)O)=N\NC1=NCCN1`, the TGI in assay [1], in [2], in assay [3], in [4], in assay [6] and in assay [7] was greater than 100 µM each time. Moreover, the TGI in [8], in [9], in [10] and in assay [11] was greater than 100 µM each time.

Turning to `Cc1c2c(c(C)c3c[n+](C)ccc13)Oc1ccccc1O2`, the TGI in [1] is 23.8 µM; in assay [12], greater than 69.8 µM; in assay [2], 27.4 µM; in assay [3], 68.2 µM; in assay [4], greater than 71.1 µM; in [6], greater than 52.8 µM. Also, the TGI in assay [7] is 17.5 µM; in assay [8], greater than 80.4 µM; in assay [9], 12.7 µM; in assay [10], 37.6 µM; in [11] it was 41.2 µM.

Turning to `CN(C)C(=S)Nc1nnc(NC23CC4CC(CC(C4)C2)C3)s1`, the TGI in [1] was greater than 100 µM; in assay [2], 32.6 µM; in assay [3] it was 19.2 µM; in [4] it was 33.8 µM; in assay [6] it was 38.3 µM; in [7] it was 46.3 µM. The TGI in assay [8] stood at 30.7 µM; in assay [9] it was 41.2 µM; in assay [10], 84.9 µM; in assay [11], 44.7 µM.

`CC1=CC(c2ccccc2)OP1(=O)c1ccccc1` (centres undefined): the TGI in [2], in [3], in [4], in assay [6], in [7] and in [8] was greater than 100 µM each time. In addition, the TGI in [9] and in assay [11] was greater than 100 µM in each case.

For `NNC(N)=Nc1cccc2ccccc12`, the TGI in assay [1], in assay [12], in assay [2], in assay [3], in [6] and in assay [8] was greater than 100 µM each time. For the same compound, the TGI in assay [9] and in assay [10] was greater than 100 µM throughout.

On to `O=C1/C(=C/c2ccc(O)cc2)NC(=S)N1CN1CCCCC1`, for which the TGI in assay [1], in [12], in assay [2], in assay [3], in assay [4] and in assay [6] was greater than 100 µM in each case. The TGI in assay [7], in assay [8], in assay [9], in [10] and in assay [11] was greater than 100 µM each time.

`O=C(O)CC(NC(=O)C(F)(F)F)C(=O)NC1Cc2ccccc2OC1=O` (centres undefined): the TGI in assay [1], in [2], in assay [3], in assay [5], in assay [6] and in [7] was greater than 100 µM throughout. Moreover, the TGI in assay [8], in assay [9] and in [11] was greater than 100 µM each time.

In the case of `COCCO`, the TGI in [1], in [2], in [3], in assay [4], in assay [6] and in assay [7] was greater than 100 µM in each case. Also, the TGI in assay [8], in assay [9] and in [11] was greater than 100 µM each time.

With `O=C(CSc1nc2ccc(I)cc2c(=O)n1Cc1ccccc1)N/N=C/c1ccccc1`, the TGI is greater than 100 µM in assay [1]; 43.3 µM in assay [12]; greater than 100 µM in assay [2]; greater than 100 µM in assay [3]; greater than 100 µM in assay [4]; greater than 100 µM in assay [6]. Also, the TGI in assay [7] is 33.6 µM; in [8], 30.9 µM; in [9], 49.1 µM; in [10] it was greater than 100 µM; in assay [11], 35.6 µM.

`C#CCNC(=O)CCC(N)C(=O)O` (centres undefined): the TGI in assay [1], in assay [2], in assay [3], in assay [4], in [6] and in assay [7] was greater than 100 µM each time. The TGI in assay [8], in assay [9], in assay [10] and in assay [11] was greater than 100 µM throughout.

Regarding `COC1/C=C\C=C(/C)C(=O)NC2=CC(=O)C=C(C2=O)C(OC)C(C)CC(OC)C(OC)C(C)/C=C(/C)C1OC(N)=O` (centres undefined), the TGI in [1] was 1.25 µM; in assay [2] it was 15.7 µM; in assay [3] it was 12.1 µM; in [4], 13.8 µM; in [6] it was 2.8 µM; in [7], 7.23 µM. The TGI in assay [8] was determined as 35.4 µM; in assay [9], 30.7 µM; in assay [10], 1.85 µM; in assay [11], 20.5 µM.

Take `COc1ccc2nc(-c3ccc(OC(=O)N(C)C)cc3)cn2c1`: the TGI in assay [1], in [12], in assay [2], in assay [3], in [4] and in [6] was greater than 100 µM throughout. The TGI in assay [7], in [8], in assay [9], in assay [10] and in assay [11] was greater than 100 µM each time.

As for `CCOC(=O)C(Cc1ccc2c(c1)CCC2)(Cc1ccc2c(c1)CCC2)C(=O)OCC`, the TGI was 78.4 µM in [1]; greater than 100 µM in assay [12]; greater than 100 µM in [3]; greater than 100 µM in assay [4]; greater than 100 µM in assay [6]; greater than 100 µM in assay [7]. The TGI in [8], in [9], in assay [10] and in assay [11] was greater than 100 µM throughout.

For the compound `Cc1ccc2nc3c(C(=O)NCCN(C)C)cccc3cc2c1`, the TGI in [2] was 6.77 µM; in [3] it was 4.79 µM; in assay [4], 6.4 µM; in [6], 5.45 µM; in [7], 5.83 µM; in [8], 7.14 µM. Also, the results for the TGI in assay [9], in assay [10] and in assay [11] were 6.34 µM, 5.28 µM and 5.3 µM, respectively.

Turning to `Nc1[nH]c(=O)nc2sc3c(c12)CCCC3`, the TGI in [1], in assay [12], in assay [2], in assay [3], in assay [6] and in assay [9] was greater than 100 µM each time. The TGI in assay [10] and in assay [11] was greater than 100 µM throughout.

With `C=C1C(=O)OC2/C=C(\C)CC/C=C(/C)CC(OC(=O)/C(=C/CO)CO)C12` (centres undefined), the TGI was greater than 100 µM in assay [1]; 33.1 µM in assay [2]; 75.3 µM in assay [3]; 81.5 µM in assay [4]; 30.9 µM in assay [5]; 63.1 µM in assay [6]. For the same compound, the TGI in [7] is greater than 100 µM; in assay [8], greater than 100 µM; in assay [9], greater than 100 µM; in assay [10], greater than 100 µM; in [11], 64 µM.

Take `NCCCNCCSSCc1ccccc1CSSCCNCCCN`: the TGI in [1] was greater than 100 µM; in [2] it was greater than 100 µM; in assay [3], 27.4 µM; in [4], greater than 100 µM; in assay [6], greater than 100 µM; in assay [7], greater than 100 µM. In addition, the TGI was greater than 100 µM in assay [8], greater than 100 µM in assay [9], 29.8 µM in [10] and greater than 100 µM in [11].

The values above are taken from PubChem BioAssay (NCI).
